Patent US20190099456A1, “COMPOSITION FOR PROMOTING INTERFERON LAMBDA PRODUCTION AND PRODUCTION METHOD THEREFOR” (KIKKOMAN CORPORATION, priority 2016, published 2019)

Legend:
BDCA3 DC [1] = test: Test of promoting cytokine production by BDCA3 DC (cytometric beads array); assay type: cell-based, human; conditions: lactic acid bacteria count/DC count=100
Description: Poly IC or the lactic acid bacteria suspension prepared by using strain KK221 according to Example 1, and BDCA3 DC were prepared and co-cultured so that lactic acid bacteria count/DC count=100, and the measurement of the activity of promoting production of various cytokines was carried out.
Note that each of TNFα, IL-10, IL-1β, IL-6, and IL-12p70 was measured by using cytometric beadsarray (CBA; Becton, Dickinson and Company).

BDCA3 DC [2] = test: Test of promoting interferon λ3 production by BDCA3 DC co-cultured with lactic acid bacteria suspension; assay type: cell-based, human; conditions: 10 μM chloroquine, 24 hours
Description: First, an MRS medium containing 10% (w/v) salt was inoculated with strain KK221 so that a concentration became 1×10^7 cells/ml, and therefore a stock solution of lactic acid bacteria was prepared. The stock solution of lactic acid bacteria was statically cultured at 30° C. for 48 to 72 hours, and then subjected to a boiling and pasteurization treatment at 95° C. for 10 minutes, and therefore a pasteurization-treated culture solution was prepared. […]
Activity of promoting interferon λ production by the prepared lactic acid bacteria suspension was evaluated as follows by using dendritic cells collected and prepared from the peripheral blood of a non-virus infected healthy subject. […]
The number of cells of each isolated DC was measured, and a cell stock solution was prepared using an IMDM medium (GIBCO) containing 25 mM D-glucose, 25 mM HEPES, and […] so that a concentration became 5×10^4 cells/ml. […]
Using the recovered culture supernatant, interferon λ3 was measured by a chemiluminescent enzyme immunoassay method according to a method described in a document of Sugiyama, et al. [Sugiyama M, et al. Hepatol Res. 42 (11): 1089-1099, 2012]. […]

Poly IC
production of various cytokines (TNFα, IL-10, IL-1β, IL-6, IL-12p70, interferon α, interferon λ) by BDCA3 DC (BDCA3 DC [1]): nonspecifically promoted production of TNFα, interferon α, IL-6, and the like in addition to interferon λ (IL28B)
activity of promoting interferon λ production according to addition of chloroquine (BDCA3 DC [2]): deteriorated
